Data set [1] deals with T1, Enteropeptidase (Homo sapiens, UniProt P98073). As to the kind of experiment: Inhibition of human recombinant enteropeptidase using 5FAM-Abu-Gly-Asp-Asp-Asp-Lys-Ile-Val-Gly-Gly-Lys(CPQ2)-Lys-Lys-NH2 as substrate incubated for 6 mins by fluorescence plate reader analysis.
Data set [2] concerns the target T1, Enteropeptidase. In words: Inhibition of human recombinant enteropeptidase using 5FAM-Abu-Gly-Asp-Asp-Asp-Lys-Ile-Val-Gly-Gly-Lys(CPQ2)-Lys-Lys-NH2 as substrate assessed as dissociation half life preincubated with compound for 2 hrs followed by substrate addition and measured every 2 mins by fluorescence based analysis.
Data set [3] deals with T1, Enteropeptidase. As to the kind of experiment: Inhibition of human recombinant enteropeptidase using 5FAM-Abu-Gly-Asp-Asp-Asp-Lys-Ile-Val-Gly-Gly-Lys(CPQ2)-Lys-Lys-NH2 as substrate incubated for 120 mins by fluorescence plate reader analysis.
A short description of data set [4]: Stability of the compound at pH 1.2 assessed as drug decomposition at 10 ug/ml incubated for 24 hrs by HPLC analysis. The class given is physicochemical. Particulars: buffer, at 10 µg/mL, read-out: Drug degradation.
Data set [5] in a line: In vivo inhibition of enteropeptidase in D12079B diet-induced obese C57BL/6J mouse model assessed as fold increase in fecal protein output at 10 mg/kg, po measured overnight relative to N-({4-[(4-carbamimidamidobenzoyl)oxy]phenyl}acetyl)-L-aspartic acid hydrochloride. The class given is functional.
The nature of data set [6]: Stability of the compound at pH 6.8 assessed as drug decomposition at 10 ug/ml incubated for 24 hrs by HPLC analysis. The class given is physicochemical. The following applies: buffer, at 10 µg/mL, read-out: Drug degradation.
The nature of data set [7]: Drug absorption in monkey intestine assessed as fraction of drug absorbed into portal vein at 1 mg/kg, po by LC-MS/MS analysis. The class given is ADME, organism-based, Macaca mulatta. The following applies: rhesus monkey, in vivo.
A short description of data set [8]: Oral bioavailability in dog assessed as ratio of dose normalized oral AUC to intravenous AUC at 1 mg/kg by LC-MS/MS analysis. Type of data set: ADME, organism-based, Canis lupus familiaris. The following applies: in vivo.
Data set [9] in a line: Drug absorption in dog intestine assessed as fraction of drug absorbed into portal vein at 1 mg/kg, po by LC-MS/MS analysis. Particulars: in vivo. Type of data set: ADME, organism-based, Canis lupus familiaris.
The nature of data set [10]: Oral bioavailability in rat assessed as ratio of dose normalized oral AUC to intravenous AUC at 10 mg/kg by LC-MS/MS analysis. Type of data set: ADME, organism-based. Particulars: in vivo.
Data set [11] is described as follows: Inhibition of rat recombinant enteropeptidase catalytic domain (818 to 1057 residues) using 5FAM-Abu-Gly-Asp-Asp-Asp-Lys-Ile-Val-Gly-Gly-Lys(CPQ2)-Lys-Lys-NH2 as substrate incubated for 120 mins by fluorescence plate reader analysis.
A short description of data set [12]: Drug absorption in mouse intestine assessed as fraction of drug absorbed into portal vein at 10 mg/kg, po by LC-MS/MS analysis. Type of data set: ADME, organism-based. The following applies: in vivo.
Data set [13] is described as follows: Drug metabolism in Sprague-Dawley rat assessed as open-ring type hydrolyzed metabolite formation in plasma at 100 mg/kg, po by LC-MS/MS analysis. The class given is ADME, organism-based. The following applies: in vivo.
A short description of data set [14]: Oral bioavailability in monkey assessed as ratio of dose normalized oral AUC to intravenous AUC at 1 mg/kg by LC-MS/MS analysis. Particulars: rhesus monkey, in vivo. Type of data set: ADME, organism-based, Macaca mulatta.
A short description of data set [15]: Drug absorption in rat intestine assessed as fraction of drug absorbed into portal vein at 10 mg/kg, po by LC-MS/MS analysis. The class given is ADME, organism-based. Particulars: in vivo.
The nature of data set [16]: Oral bioavailability in mouse assessed as ratio of dose normalized oral AUC to intravenous AUC at 10 mg/kg by LC-MS/MS analysis. The class given is ADME, organism-based. The following applies: in vivo.

Some results are limits rather than exact numbers.

T1 sequence (P98073 2-784 limits assumed): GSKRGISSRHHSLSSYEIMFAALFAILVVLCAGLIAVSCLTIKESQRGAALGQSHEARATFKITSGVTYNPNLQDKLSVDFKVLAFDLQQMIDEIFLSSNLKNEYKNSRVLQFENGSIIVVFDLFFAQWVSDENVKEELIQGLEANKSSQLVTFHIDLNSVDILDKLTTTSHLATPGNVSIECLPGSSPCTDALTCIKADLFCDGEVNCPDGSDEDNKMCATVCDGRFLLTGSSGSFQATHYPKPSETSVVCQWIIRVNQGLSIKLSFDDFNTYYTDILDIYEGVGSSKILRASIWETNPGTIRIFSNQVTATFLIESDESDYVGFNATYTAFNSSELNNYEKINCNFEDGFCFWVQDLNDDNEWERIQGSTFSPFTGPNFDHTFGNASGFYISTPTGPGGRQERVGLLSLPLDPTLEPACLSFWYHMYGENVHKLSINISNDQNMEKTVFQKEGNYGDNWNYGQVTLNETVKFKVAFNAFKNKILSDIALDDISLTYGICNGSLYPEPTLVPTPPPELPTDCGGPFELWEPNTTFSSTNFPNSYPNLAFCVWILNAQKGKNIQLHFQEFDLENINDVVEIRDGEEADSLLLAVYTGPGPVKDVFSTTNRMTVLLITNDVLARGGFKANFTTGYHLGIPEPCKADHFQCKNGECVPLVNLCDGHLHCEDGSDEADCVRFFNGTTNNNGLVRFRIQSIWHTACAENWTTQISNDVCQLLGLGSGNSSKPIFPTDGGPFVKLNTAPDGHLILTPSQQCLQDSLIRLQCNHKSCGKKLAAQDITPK
T1 sequence (P98073 785-1019 limits assumed): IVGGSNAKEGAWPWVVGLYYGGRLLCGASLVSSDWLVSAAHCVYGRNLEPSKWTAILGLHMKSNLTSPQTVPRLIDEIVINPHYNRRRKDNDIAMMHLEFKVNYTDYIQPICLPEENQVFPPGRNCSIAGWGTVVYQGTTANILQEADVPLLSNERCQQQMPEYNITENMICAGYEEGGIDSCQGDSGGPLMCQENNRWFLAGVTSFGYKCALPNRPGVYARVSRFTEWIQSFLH

Broadly, the IC50 is the point on the concentration scale where inhibition reaches its midpoint. In the case of `N=C(N)Nc1ccc2c(c1)CCCCOc1c(cccc1C(=O)N[C@@H](CC(=O)O)C(=O)O)OC2=O`, the IC50 amounted to 26 nM at Enteropeptidase [1] and 1.7 nM at Enteropeptidase [3]. At Enteropeptidase [2], the T1/2 is over 2 h.

For `N=C(N)Nc1ccc2c(c1)CCCCCc1c(cccc1C(=O)N[C@@H](CC(=O)O)C(=O)O)OC2=O`, the degraded at 24 h, 10 ug/ml is 0.4% in data set [4] and 0.6% in data set [6]. Besides, in data set [5], the “fold change (FC)” value was found to be 1.15. Besides, the IC50 at Enteropeptidase [1] amounted to 96 nM; on Enteropeptidase [3], 2.9 nM. The T1/2 on Enteropeptidase [2] is over 2 h.

Take `N=C(N)Nc1ccc2c(c1)OCCCc1c(cccc1C(=O)N[C@@H](CC(=O)O)C(=O)O)OC2=O`: the IC50 on Enteropeptidase [1] was 8.7 nM; on Enteropeptidase [3], 0.69 nM. Besides, the T1/2 on Enteropeptidase [2] amounted to 0.27 h.

For `N=C(N)Nc1ccc2c(c1)CCCc1c(cccc1C(=O)N[C@@H](CC(=O)O)C(=O)O)OC2=O`, the figures for the IC50 on Enteropeptidase [1] and on Enteropeptidase [3] were 430 nM and 22 nM, respectively.

In the case of `Cc1ccc(C(=O)N[C@@H](CC(=O)O)C(=O)O)cc1OC(=O)c1ccc(NC(=N)N)cc1`, the figures for the IC50 on Enteropeptidase [1] and at Enteropeptidase [3] were over 3300 nM and 710 nM, respectively.

For the compound `N=C(N)Nc1ccc2c(c1)CCCCCCc1c(cccc1C(=O)N[C@@H](CC(=O)O)C(=O)O)OC2=O`, the IC50 at Enteropeptidase [1] is 2500 nM; on Enteropeptidase [3], 81 nM.

A word on the bioavailability: it is the share of a dose that reaches the circulation, judged against a reference dose that is usually intravenous. Regarding `N=C(N)Nc1ccc2c(c1)CCCOc1c(cccc1C(=O)N[C@@H](CC(=O)O)C(=O)O)OC2=O`, the FaFg in [7] amounted to 0.3%; in [9], 3.4%; in [12], 1.9%; in data set [15] it was 1.2%. Further, the bioavailability in data set [8] worked out at 2.8%; in data set [10], 1%; in data set [14], 0.3%; in data set [16], 1.1%. For the same compound, the 50% inhibitory concentration (IC50) is 0.62 nM in data set [11], 9.4 nM at Enteropeptidase [1] and 0.41 nM on Enteropeptidase [3]. Besides, the “fold change (FC)” value in data set [5] is listed as 1.72. For the same compound, the Drug metabolism result in [13] is reported as “Metabolite_Detected”. For the same compound, the T1/2 at Enteropeptidase [2] is over 2 h.

Take `N=C(N)Nc1ccc2c(c1)CCCCc1c(cccc1C(=O)N[C@@H](CC(=O)O)C(=O)O)OC2=O`: the degraded at 24 h, 10 ug/ml in [4] was 1.2%; in data set [6], 3.4%. For the same compound, the “fold change (FC)” value in data set [5] amounted to 1.13. For the same compound, the figures for the IC50 on Enteropeptidase [1] and at Enteropeptidase [3] were 93 nM and 3.2 nM, respectively. Also, the T1/2 on Enteropeptidase [2] is over 2 h.

With `Cc1c(OC(=O)c2ccc(NC(=N)N)cc2)cccc1C(=O)N[C@@H](CC(=O)O)C(=O)O`, the IC50 is 69 nM on Enteropeptidase [1] and 4.4 nM at Enteropeptidase [3].
